Results as given in ChEMBL document CHEMBL1133707, “Heteroarylmethoxyphenylalkoxyiminoalkylcarboxylic acids as leukotriene biosynthesis inhibitors” (J Med Chem, 2000).
Each block holds one molecule with its values, some of them ahead of it.

Experiments:
[1] = system: Rattus norvegicus; assay: Percent inhibition was determined for in vivo ionophore induced rat pleurisy at a dose of 3 mg/kg; format: functional
[2] = target: T1, Polyunsaturated fatty acid 5-lipoxygenase (Homo sapiens) (UniProt P09917); assay: Inhibition of Calcium Ionophore (A-23187)-stimulated LTB4 formation in Human Neutrophil assay at 100 nM.
T1 sequence (whole entry): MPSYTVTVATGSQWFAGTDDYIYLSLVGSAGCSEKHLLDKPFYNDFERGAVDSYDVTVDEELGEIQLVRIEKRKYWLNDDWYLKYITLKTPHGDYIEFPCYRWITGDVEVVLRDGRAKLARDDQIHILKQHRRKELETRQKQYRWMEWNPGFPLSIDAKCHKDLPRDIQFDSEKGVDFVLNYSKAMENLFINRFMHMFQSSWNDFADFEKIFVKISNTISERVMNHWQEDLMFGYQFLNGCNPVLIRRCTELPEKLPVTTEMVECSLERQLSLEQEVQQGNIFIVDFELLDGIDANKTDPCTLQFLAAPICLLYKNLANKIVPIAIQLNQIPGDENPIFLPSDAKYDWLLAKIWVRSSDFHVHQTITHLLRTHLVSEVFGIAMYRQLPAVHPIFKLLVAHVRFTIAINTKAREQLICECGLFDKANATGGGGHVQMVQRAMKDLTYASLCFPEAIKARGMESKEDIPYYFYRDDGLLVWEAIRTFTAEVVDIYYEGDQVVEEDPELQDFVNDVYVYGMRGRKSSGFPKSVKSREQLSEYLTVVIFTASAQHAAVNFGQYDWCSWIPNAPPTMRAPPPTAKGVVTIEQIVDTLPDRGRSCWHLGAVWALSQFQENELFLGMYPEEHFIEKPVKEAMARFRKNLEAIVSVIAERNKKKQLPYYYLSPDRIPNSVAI

[3] = system: Rattus norvegicus; assay: Effective dose was determined for in vivo ionophore induced rat pleurisy.; format: functional
[4] = half life was determined in plasma of dog; format: ADME, organism-based, Canis lupus familiaris
[5] = half life was determined in plasma of monkey; format: ADME; conditions: simiiformes
[6] = organism: Homo sapiens; assay: Inhibition of Calcium Ionophore (A-23187)-stimulated LTB4 formation in Human whole blood assay.; format: functional
[7] = system: Rattus norvegicus; assay: Percent inhibition was determined for in vivo ionophore induced rat pleurisy at a dose of 0.3 mg/kg
[8] = half life was determined in plasma of rat; format: ADME, organism-based
[9] = system: Rattus norvegicus; assay: Effective dose was determined in in vivo which inhibits 50% of the mean value in rat anaphylaxis.; format: functional
[10] = system: Rattus norvegicus; assay: Percent inhibition was determined for in vivo ionophore induced rat pleurisy at a dose of 10 mg/kg
[11] = system: Rattus norvegicus; assay: In vivo inhibition of ionophore induced rat pleurisy.; format: functional
[12] = organism: Homo sapiens; assay: Inhibition of Calcium Ionophore (A-23187)-stimulated LTB4 formation in Human whole blood assay at a concentration of 12.5 nM; format: functional

inhibition [2]: 40%
SMILES: C/C(CC(=O)O)=N\OC(c1ccc(OCc2ccc3ccccc3n2)cc1)C1CCCCC1 (stereo unspecified)
I [1]: 68%

SMILES: C/C(=N\OC(c1ccc(OCc2ccc3ccccc3n2)cc1Cl)C1CCCCC1)C(=O)O (stereo unspecified)
ED50 [3]: 0.8 mg/kg

half-life [4]: 4.6 h | half-life [5]: 4 h | IC50 [6]: 840 nM | half-life [8]: 11.8 h
SMILES: C/C(=N\O[C@H](c1ccc(OCc2ccc3ccccc3n2)cc1)C1CCCCC1)C(=O)O
I [7]: 43%

SMILES: C/C(=N\OC(c1ccc(OCc2ccc3ccccc3n2)cc1)C1CCCCC1)C(=O)[O-].[Na+] (stereo unspecified)
Inhibition [6]: 72% | I [7]: 74%

SMILES: CC(C)(CC(O/N=C/C(=O)O)c1ccc(OCc2ccc3ccccc3n2)cc1)c1ccccc1 (stereo unspecified)
ED50 [3]: 4 mg/kg

half-life [4]: 2 h | half-life [5]: 5.4 h | IC50 ([6]; Homo sapiens, Blood): 2100 nM | half-life [8]: 1 h
SMILES: CC(=NOC(c1ccc(OCc2ccc3ccccc3n2)cc1)C1CCCCC1)C(=O)O (stereo unspecified)
I [1]: 89% | ED50 [9]: 1.2 mg/kg

SMILES: O=C(O)/C=N/OCC(c1ccc(OCc2ccc3ccccc3n2)cc1)C1CCCCC1 (stereo unspecified)
I [10]: 73%

SMILES: CC(C)(C)SC/C(=N\OC(c1ccc(OCc2ccc3ccccc3n2)cc1)C1CCCCC1)C(=O)O (stereo unspecified)
I [3]: 47%

half-life [4]: 5.6 h | half-life [5]: 1.6 h | IC50 ([6]; Homo sapiens, Blood): 720 nM | half-life [8]: 10.3 h
SMILES: C/C(=N\O[C@H](c1ccc(OCc2ccc3ccccc3n2)cc1)C1CCCCC1)C(=O)[O-].[Na+]
ED50 [11]: 0.14 mg/kg | ED50 [9]: 0.13 mg/kg

SMILES: C/C(=N/OC(c1ccc(OCc2ccc3ccccc3n2)cc1)C1CCCCC1)C(=O)O (stereo unspecified)
Inhibition [12]: 59%
